# Test results published in article PMC6158189, “A pharmacological probe identifies cystathionine β-synthase as a new negative regulator for ferroptosis” (Cell Death & Disease, 2018).
# Entries after “also recorded” stand apart in the source; their conditions may differ.
# Tests used:
# [1] = target: T1, hCBS (Homo sapiens, UniProt P35520); assay: rapid dilution reversibility experiment; type: biochemical; details: 10 μM, 40 min pre-incubation with 20 μM hCBS, 200-fold dilution
# T1 construct: GST (N); made in house; host or cells: E. coli BL21
# T1 sequence (P35520 1-551): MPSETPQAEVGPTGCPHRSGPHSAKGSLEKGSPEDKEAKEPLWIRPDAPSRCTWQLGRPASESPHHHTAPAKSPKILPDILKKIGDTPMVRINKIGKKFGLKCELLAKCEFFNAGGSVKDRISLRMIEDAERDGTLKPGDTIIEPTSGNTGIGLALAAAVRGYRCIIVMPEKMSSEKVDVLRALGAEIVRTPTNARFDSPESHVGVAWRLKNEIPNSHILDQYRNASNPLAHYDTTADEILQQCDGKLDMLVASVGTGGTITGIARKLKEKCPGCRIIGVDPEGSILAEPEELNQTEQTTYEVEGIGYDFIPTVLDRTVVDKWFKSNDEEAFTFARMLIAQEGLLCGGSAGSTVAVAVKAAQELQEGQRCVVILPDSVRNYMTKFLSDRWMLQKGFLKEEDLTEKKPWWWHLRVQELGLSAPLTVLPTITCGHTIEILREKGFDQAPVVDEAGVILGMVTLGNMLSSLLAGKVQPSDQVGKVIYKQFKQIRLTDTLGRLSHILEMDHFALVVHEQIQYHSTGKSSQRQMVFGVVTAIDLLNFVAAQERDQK
# Method: Figure S2. The mode of action of CH004 in inhibiting hCBS. […] After incubation with DMSO or CH004 at 10 μM for 40 min, hCBS (20 μM) was diluted 200-fold and the activity was measured according to the standard assay protocol (Materials and Methods). The data are presented as percentages of control (CTR; DMSO, 100%) and shown as means ± SDs (n = 5). The effects of 0.05 and 10 μM CH004 on hCBS (100 nM) without pre-incubation were defined as positive control (PC) and negative control (NC), respectively. (B) Inhibition of hCBS by CH004 as a function of PLP concentration with Cys (20 mM) together with Hcys (10 mM) as substrates (non-competitive inhibition constant αKi=15.2 ± 4.9 μM). (C) Inhibition of hCBS by CH004 as a function of Cys concentration in the presence of 100 μM PLP and the absence of Hcys (mixed inhibition constant αKi=26.4 ± 8 μM). (D) Inhibition of hCBS by CH004 as a function of Hcys concentration in the presence of 20 mM Cys and 100 μM PLP (mixed inhibition constant αKi’=7.2 ± 1.6 μM). Each point in the Lineweaver-Burk plots represents the means of triplicate. The αKi or αKi’ values were calculated by using the non-linear fitting method for enzyme kinetics in GraphPad Prism 5. (E) Surface Plasmon Resonance assays analysis of the binding of CH004 to hCBS. […] Dissociation constants for CH004 (KD) were calculated by using Biacore evaluation software (Materials and Methods).
# [2] = tested on: HEK293T cells; assay: intracellular ROS (DCFH-DA, flow cytometry); type: cell-based; details: 12 h
# Method: Fig. 5 In situ reduction of CBS activity and H2S in mitochondria by CH004 is coupled with an increase of intracellular ROS. a, b CH004 dose-dependently elevates ROS levels in both HepG2 (a) and HEK293T cells (b). The cells were treated with CH004 for 12 h or with 1 mM H2O2 for 30 min before the staining with DCFH-DA (Molecular Probes) and the analyzsis by flow cytometry (“Materials and Methods” section). Means ± SDS (n = 3). […] HepG2 cells were incubated with indicated inhibitors for 8 h before staining with the mitochondria tracker Mito-tracker® Green (Invitrogen) and the AzMC probe. Cyan represents the colocalization of H2S (blue) and the mitochondria tracker (green). Bars: 50 μm. d hCBS co-localizes with the mitochondria in HepG2 and HEK293T cells. HepG2 and HEK293T cells were stained with an anti-CBS antibody (3E1, 1:200; Abnova) for hCBS (red), Mito-tracker® Green for the mitochondria (green) and DAPI for the nucleus (blue). […]
# To investigate the intracellular ROS levels, HEK293T or HepG2 cells were seeded in 6-well plates for one day, then incubated with the indicated inhibitors and 1 mM H2O2 for 12 h and 30 min, respectively. After trypsinization and one wash in PBS, the collected cells were resuspended in PBS and incubated with 100 μM probe DCFH-DA for 30 min at 37 °C before being analyzed using an LSR Fortessa flow cytometer.
smiles,measurement,setting,value
"Cn1nc(Cc2ccccc2)nc2c(=O)n(C)c(=O)nc1-2 [CH004, 3-benzyl-1,6-dimethylpyrimido[5,4-e][1,2,4]triazine-5,7(1H,6H)-dione]",reversibility of binding to hCBS,[1],binds reversibly; also recorded: reversibly binds
same,maximum increase of cellular ROS,[2],~ 2 fold
